Experimental data taken from patent US7781591B2, “Substituted 3-cyanopyridines as protein kinase inhibitors” (Wyeth LLC, priority 2006, dated 2010).

Molecular target: T1, human PKCθ full length enzyme (Homo sapiens, UniProt Q04759)
T1 construct: human PKCθ full length enzyme (Panvera Cat# P2996); purchased Panvera P2996
Experiment: PKCθ IMAP assay (fluorescence polarization)
Type: biochemical
Conditions: human PKCθ full length enzyme, IMAP; average value; read-out: IC50 PKCθ IMAP

T1 sequence (Q04759 whole entry): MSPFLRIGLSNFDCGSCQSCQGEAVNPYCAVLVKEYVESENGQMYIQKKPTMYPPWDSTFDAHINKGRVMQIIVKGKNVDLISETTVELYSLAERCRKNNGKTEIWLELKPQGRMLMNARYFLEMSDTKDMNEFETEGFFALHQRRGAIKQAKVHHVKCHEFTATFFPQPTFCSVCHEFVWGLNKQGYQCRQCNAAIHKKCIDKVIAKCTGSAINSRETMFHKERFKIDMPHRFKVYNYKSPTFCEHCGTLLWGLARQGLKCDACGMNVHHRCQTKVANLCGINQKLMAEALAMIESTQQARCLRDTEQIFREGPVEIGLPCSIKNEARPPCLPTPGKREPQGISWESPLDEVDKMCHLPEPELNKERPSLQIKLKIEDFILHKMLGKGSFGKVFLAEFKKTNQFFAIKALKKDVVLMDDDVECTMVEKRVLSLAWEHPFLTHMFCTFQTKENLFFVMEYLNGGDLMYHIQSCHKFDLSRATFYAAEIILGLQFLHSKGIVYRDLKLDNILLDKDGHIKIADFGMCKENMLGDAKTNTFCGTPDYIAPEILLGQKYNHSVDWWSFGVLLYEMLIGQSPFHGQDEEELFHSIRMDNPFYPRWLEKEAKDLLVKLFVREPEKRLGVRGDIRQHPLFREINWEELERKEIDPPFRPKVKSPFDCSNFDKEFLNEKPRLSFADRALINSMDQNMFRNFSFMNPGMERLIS

In order of falling IC50:
1. COc1cccc(-c2cncc(C#N)c2Nc2ccc3cn[nH]c3c2)c1 [Compound 296, 4-(1H-indazol-6-ylamino)-5-(3-methoxyphenyl)nicotinonitrile]  16200 nM
2. COc1ccc(-c2cncc(C#N)c2Nc2ccc3[nH]ncc3c2)cc1OC [Compound 379, 5-(3,4-dimethoxyphenyl)-4-(1H-indazol-5-ylamino)nicotinonitrile]  2530 nM
3. N#Cc1cncc(-c2cccc(-c3ccc(C(=O)NCCO)cc3)c2)c1Nc1ccc2[nH]ccc2c1 [Compound 199, 3′-[5-cyano-4-(1H-indol-5-ylamino)pyridin-3-yl]-N-(2-hydroxyethyl)biphenyl-4-carboxamide]  1300 nM
4. CN(C)C(=O)c1cccc(-c2cncc(C#N)c2Nc2cccc3[nH]ccc23)c1 [Compound 312, 3-[5-cyano-4-(1H-indol-4-ylamino)pyridin-3-yl]-N,N-dimethylbenzamide]  600 nM
5. N#Cc1cncc(-c2cccc(-c3ccc(CN4CCOCC4)s3)c2)c1Nc1ccc2[nH]ccc2c1 [Compound 185, 4-(1H-indol-5-ylamino)-5-{3-[5-(morpholin-4-ylmethyl)-2-thienyl]phenyl}nicotinonitrile]  500 nM
6. COc1ccc(-c2cncc(C#N)c2Nc2ccc3c(ccn3C)c2C)cc1OC [Compound 555, 5-(3,4-dimethoxyphenyl)-4-[(1,4-dimethyl-1H-indol-5-yl)amino]nicotinonitrile]  226 nM
7. COc1ccc(-c2cncc(C#N)c2Nc2ccc3[nH]ccc3c2)cc1OCCN1CCC(O)CC1 [Compound 238, 5-{3-[2-(4-hydroxypiperidin-1-yl)ethoxy]-4-methoxyphenyl}-4-(1H-indol-5-ylamino)nicotinonitrile]  210 nM
8. COc1ccc(-c2cncc(C#N)c2Nc2ccc3[nH]ccc3c2)cc1-c1ccc(Cl)cc1 [Compound 190, 5-(4′-chloro-6-methoxybiphenyl-3-yl)-4-(1H-indol-5-ylamino)nicotinonitrile]  180 nM
9. N#Cc1cncc(-c2cccc(-c3cccs3)c2)c1Nc1ccc2[nH]ccc2c1 [Compound 136, 4-(1H-indol-5-ylamino)-5-[3-(2-thienyl)phenyl]nicotinonitrile]  130 nM
10. N#Cc1cncc(-c2ccoc2)c1Nc1ccc2[nH]ccc2c1 [Compound 262, 5-(3-furyl)-4-(1H-indol-5-ylamino)nicotinonitrile]  120 nM
11. COc1ccc(-c2cncc(C#N)c2Nc2cccc3[nH]ccc23)cc1OCCN(C)C [Compound 301, 5-{3-[2-(dimethylamino)ethoxy]-4-methoxyphenyl}-4-(1H-indol-4-ylamino)nicotinonitrile]  50 nM
12. Cc1c(Nc2c(C#N)cncc2-c2cn[nH]c2)ccc2[nH]ccc12 [Compound 584, 4-[(4-methyl-1H-indol-5-yl)amino]-5-(1H-pyrazol-4-yl)nicotinonitrile]  43 nM
13. N#Cc1cncc(-c2cc3cc(C4OCCCO4)ccc3o2)c1Nc1cccc2[nH]ccc12 [Compound 369, 5-[5-(1,3-dioxan-2-yl)-1-benzofuran-2-yl]-4-(1H-indol-4-ylamino)nicotinonitrile]  40 nM
14. N#Cc1cncc(-c2ccc(NCCN3CCOCC3)nc2)c1Nc1cccc2[nH]ccc12 [Compound 361, 4-(1H-indol-4-ylamino)-6′-[(2-morpholin-4-ylethyl)amino]-3,3′-bipyridine-5-carbonitrile]  40 nM
15. COCCOc1cccc(-c2cncc(C#N)c2Nc2cccc3[nH]ccc23)c1 [Compound 164, 4-(1H-indol-4-ylamino)-5-[3-(2-methoxyethoxy)phenyl]nicotinonitrile]  30 nM
16. N#Cc1cncc(-c2cccc(CN)c2)c1Nc1cccc2[nH]ccc12 [Compound 328, 5-[3-(aminomethyl)phenyl]-4-(1H-indol-4-ylamino)nicotinonitrile]  20 nM
17. N#Cc1cncc(-c2cc3ccccc3o2)c1Nc1cccc2[nH]ccc12 [Compound 318, 5-(1-benzofuran-2-yl)-4-(1H-indol-4-ylamino)nicotinonitrile]  10 nM
18. COc1ccc(-c2cncc(C#N)c2Nc2cccc3[nH]ccc23)cc1OCCNCCCN1CCCC1=O [Compound 338, 4-(1H-indol-4-ylamino)-5-[4-methoxy-3-(2-{[3-(2-oxopyrrolidin-1-yl)propyl]amino}ethoxy)phenyl]nicotinonitrile]  8 nM
19. Cc1c(Nc2c(C#N)cncc2-c2cc3cc(CN4CCC(CO)CC4)ccc3o2)ccc2[nH]ccc12 [Compound 392, 5-(5-{[4-(hydroxymethyl)piperidin-1-yl]methyl}-1-benzofuran-2-yl)-4-[(4-methyl-1H-indol-5-yl)amino]nicotinonitrile]  5 nM
20. Cc1c(Nc2c(C#N)cncc2-c2ccc(OCCNCCCn3ccnc3)cc2)ccc2[nH]ccc12 [Compound 429, 5-[4-(2-{[3-(1H-imidazol-1-yl)propyl]amino}ethoxy)phenyl]-4-[(4-methyl-1H-indol-5-yl)amino]nicotinonitrile]  5 nM
21. Cc1c(Nc2c(C#N)cncc2-c2cc3cc(OCCN4CCN(C)CC4)ccc3o2)ccc2[nH]ccc12 [Compound 438, 4-[(4-methyl-1H-indol-5-yl)amino]-5-{5-[2-(4-methylpiperazin-1-yl)ethoxy]-1-benzofuran-2-yl}nicotinonitrile]  4 nM
22. Cc1cc2[nH]ccc2cc1Nc1c(C#N)cncc1-c1cc2cc(CO)ccc2o1 [Compound 499, 5-[5-(hydroxymethyl)-1-benzofuran-2-yl]-4-[(6-methyl-1H-indol-5-yl)amino]nicotinonitrile]  3 nM
23. 4-(1H-indol-4-ylamino)-5-[4-methoxy-3-(2-{[2-(1-methylpyrrolidin-2-yl)ethyl]amino}ethoxy)phenyl]nicotinonitrile [Compound 341]  3 nM
24. N#Cc1cncc(-c2cc3cc(CNCCCCO)ccc3s2)c1Nc1cccc2[nH]ccc12 [Compound 277, 5-(5-{[(4-hydroxybutyl)amino]methyl}-1-benzothien-2-yl)-4-(1H-indol-4-ylamino)nicotinonitrile]  3 nM
25. Cc1c(Nc2c(C#N)cncc2-c2cc3cc(CN4CCN(CCN(C)C)CC4)ccc3o2)ccc2[nH]ccc12 [Compound 396, 5-[5-({4-[2-(dimethylamino)ethyl]piperazin-1-yl}methyl)-1-benzofuran-2-yl]-4-[(4-methyl-1H-indol-5-yl)amino]nicotinonitrile]  2 nM
26. N#Cc1cncc(-c2cc3cc(CNC(=O)CCN)ccc3s2)c1Nc1cccc2[nH]ccc12 [Compound 360, N-({2-[5-cyano-4-(1H-indol-4-ylamino)pyridin-3-yl]-1-benzothien-5-yl}methyl)-b-alaninamide]  2 nM
27. Cc1c(Nc2c(C#N)cncc2-c2cc3cc(CN4CCC(N5CCCCC5)CC4)ccc3o2)ccc2[nH]ccc12 [Compound 394, 5-[5-(1,4′-bipiperidin-1′-ylmethyl)-1-benzofuran-2-yl]-4-[(4-methyl-1H-indol-5-yl)amino]nicotinonitrile]  1 nM
28. COc1ccc(-c2cncc(C#N)c2Nc2cccc3[nH]ccc23)cc1OCCNCCc1ccccc1 [Compound 353, 4-(1H-indol-4-ylamino)-5-(4-methoxy-3-{2-[(2-phenylethyl)amino]ethoxy}phenyl)nicotinonitrile]  1 nM
29. N#Cc1cncc(-c2cc3cc(CNCC4CC4)ccc3s2)c1Nc1cccc2[nH]ccc12 [Compound 279, 5-(5-{[(cyclopropylmethyl)amino]methyl}-1-benzothien-2-yl)-4-(1H-indol-4-ylamino)nicotinonitrile]  1 nM
